Read-outs that look alike come from different tables or passages of the source.
What was measured:
[1] = test system: Ambrosia artemisiifolia (AMBEL), common ragweed; test: Postemergence herbicide evaluation, growth of Ambrosia artemisiifolia (AMBEL); format: in vivo; conditions: Ambrosia artemisiifolia, post-emergence, percent reduction in plant size vs untreated control, read-out: AVE. AMBEL; for pest or weed control at 280 g/ha: 280 g ae/ha; for pest or weed control at 560 g/ha: 560 g ae/ha
[2] = test system: Abutilon theophrasti (ABUTH), velvetleaf; test: Postemergence herbicide evaluation, growth of Abutilon theophrasti (ABUTH); format: in vivo; conditions: Abutilon theophrasti, post-emergence, percent reduction in plant size vs untreated control, read-out: AVE. ABUTH; for pest or weed control at 280 g/ha: 280 g ae/ha; for pest or weed control at 560 g/ha: 560 g ae/ha
[3] = Volatility of compounds measured by thermogravimetric analysis (TGA); format: physicochemical
[4] = test system: glyphosate resistant Conyza canadensis (L.) (ERICA), horseweed; test: Postemergence herbicide evaluation, growth of Conyza canadensis (ERICA); format: in vivo; conditions: Erigeron canadensis, post-emergence, percent reduction in plant size vs untreated control, read-out: Ave. ERICA; for pest or weed control at 280 g/ha: 280 g ae/ha; for pest or weed control at 560 g/ha: 560 g ae/ha
[5] = test system: Amaranthus rudis (AMATA), tall water hemp; test: Postemergence herbicide evaluation, growth of Amaranthus rudis (AMATA); format: in vivo; conditions: Amaranthus tuberculatus, post-emergence, percent reduction in plant size vs untreated control, read-out: Ave. AMATA; for pest or weed control at 280 g/ha: 280 g ae/ha; for pest or weed control at 560 g/ha: 560 g ae/ha
[6] = test system: Chenopodium album (CHEAL), common lambsquarters; test: Postemergence herbicide evaluation, growth of Chenopodium album (CHEAL); format: in vivo; conditions: Chenopodium album, post-emergence, percent reduction in plant size vs untreated control, read-out: Ave. CHEAL; for pest or weed control at 280 g/ha: 280 g ae/ha; for pest or weed control at 560 g/ha: 560 g ae/ha
[7] = test system: weeds ABUTH, AMATA, AMBEL, CHEAL, ERICA; test: Postemergence herbicide evaluation, overall average % weed control across ABUTH, AMATA, AMBEL, CHEAL and ERICA; format: in vivo; conditions: post-emergence, average over five weeds, read-out: Overall Ave % Weed Control; for pest or weed control at 280 g/ha: 280 g ae/ha; for pest or weed control at 560 g/ha: 560 g ae/ha

SMILES | pest or weed control at 280 g/ha ([1]; 168 h, 7 DAA) [%] | pest or weed control at 560 g/ha ([1]; 168 h, 7 DAA) [%] | pest or weed control at 280 g/ha ([1]; 336 h, 14 DAA) [%] | pest or weed control at 280 g/ha ([1]; 504 h, 21 DAA) [%] | pest or weed control at 560 g/ha ([1]; 504 h, 21 DAA) [%] | pest or weed control at 280 g/ha ([2]; 168 h, 7 DAA) [%] | pest or weed control at 560 g/ha ([2]; 168 h, 7 DAA) [%] | pest or weed control at 280 g/ha ([2]; 336 h, 14 DAA) [%] | pest or weed control at 560 g/ha ([2]; 336 h, 14 DAA) [%] | pest or weed control at 280 g/ha ([2]; 504 h, 21 DAA) [%] | pest or weed control at 560 g/ha ([2]; 504 h, 21 DAA) [%] | TGA Data (rate of weight loss, volatility) [3] [µg/min] | pest or weed control at 280 g/ha ([4]; 168 h, 7 DAA) [%] | pest or weed control at 560 g/ha ([4]; 168 h, 7 DAA) [%] | pest or weed control at 280 g/ha ([4]; 336 h, 14 DAA) [%] | pest or weed control at 560 g/ha ([4]; 336 h, 14 DAA) [%] | pest or weed control at 280 g/ha ([4]; 504 h, 21 DAA) [%] | pest or weed control at 560 g/ha ([4]; 504 h, 21 DAA) [%] | pest or weed control at 280 g/ha ([5]; 168 h, 7 DAA) [%] | pest or weed control at 560 g/ha ([5]; 168 h, 7 DAA) [%] | also measured
CONC(=O)COc1ccc(Cl)cc1Cl [Compound D19] | 82.5 | 93.5 | 82.5 | 100 | 100 | 75 | 87.5 | 89 | 98 | 98.5 | 100 | 0.61 | 82.5 | 80 | 98 | 100 | 98.5 | 99.5 | 77.5 | 90 | pest or weed control at 560 g/ha ([1]; 336 h, 14 DAA): 85%; pest or weed control at 280 g/ha ([5]; 336 h, 14 DAA): 90%; pest or weed control at 560 g/ha ([5]; 336 h, 14 DAA): 93.5%; pest or weed control at 280 g/ha ([5]; 504 h, 21 DAA): 72.5%; pest or weed control at 560 g/ha ([5]; 504 h, 21 DAA): 75%; pest or weed control at 280 g/ha ([6]; 168 h, 7 DAA): 77.5%; pest or weed control at 560 g/ha ([6]; 168 h, 7 DAA): 85%; pest or weed control at 280 g/ha ([6]; 336 h, 14 DAA): 94%; pest or weed control at 560 g/ha ([6]; 336 h, 14 DAA): 95%; pest or weed control at 280 g/ha ([6]; 504 h, 21 DAA): 96.5%; pest or weed control at 560 g/ha ([6]; 504 h, 21 DAA): 98%; pest or weed control at 280 g/ha ([7]; 168 h, 7 DAA): 79%; pest or weed control at 560 g/ha ([7]; 168 h, 7 DAA): 87.2%; pest or weed control at 280 g/ha ([7]; 336 h, 14 DAA): 90.7%; pest or weed control at 560 g/ha ([7]; 336 h, 14 DAA): 94.3%; pest or weed control at 280 g/ha ([7]; 504 h, 21 DAA): 93.2%; pest or weed control at 560 g/ha ([7]; 504 h, 21 DAA): 94.5%
COc1ccc(CONC(=O)COc2ccc(Cl)cc2Cl)cc1 [Compound D20] | 80 | 77.5 | 70 | 100 | 100 | 77.5 | 55 | 90 | 67.5 | 98.5 | 80 | 0.0112 | 72.5 | 82.5 | 99.5 | 98.5 | 96 | 96 | 72.5 | 77.5 | pest or weed control at 280 g/ha ([5]; 336 h, 14 DAA): 97.5%; pest or weed control at 560 g/ha ([5]; 336 h, 14 DAA): 96%; pest or weed control at 280 g/ha ([5]; 504 h, 21 DAA): 57.5%; pest or weed control at 280 g/ha ([6]; 168 h, 7 DAA): 85%; pest or weed control at 560 g/ha ([6]; 168 h, 7 DAA): 82.5%; pest or weed control at 280 g/ha ([6]; 336 h, 14 DAA): 87.5%; pest or weed control at 560 g/ha ([6]; 336 h, 14 DAA): 94.5%; pest or weed control at 280 g/ha ([6]; 504 h, 21 DAA): 99%; pest or weed control at 560 g/ha ([6]; 504 h, 21 DAA): 95%; pest or weed control at 280 g/ha ([7]; 168 h, 7 DAA): 77.5%; pest or weed control at 560 g/ha ([7]; 168 h, 7 DAA): 75%; pest or weed control at 280 g/ha ([7]; 336 h, 14 DAA): 88.9%; pest or weed control at 560 g/ha ([7]; 336 h, 14 DAA): 90.3%; pest or weed control at 280 g/ha ([7]; 504 h, 21 DAA): 90.2%; pest or weed control at 560 g/ha ([7]; 504 h, 21 DAA): 91.2%

Source: patent publication US20260042731A1, “(2,4-DICHLOROPHENOXY)ACETIC ACID ANALOGS” (CORTEVA AGRISCIENCE LLC, priority 2022, published 2026)
